Source: publication PMC10666452, “Direct inhibition of dioxygenases TET1 by the rheumatoid arthritis drug auranofin selectively induces cancer cell death in T-ALL” (Journal of Hematology & Oncology, 2023)

Biological target: T1, TET1 (TET1-CD) (Homo sapiens, UniProt Q8NFU7)
T1 construct: TET1 protein
T1 sequence (Q8NFU7 1418-2136 limits assumed): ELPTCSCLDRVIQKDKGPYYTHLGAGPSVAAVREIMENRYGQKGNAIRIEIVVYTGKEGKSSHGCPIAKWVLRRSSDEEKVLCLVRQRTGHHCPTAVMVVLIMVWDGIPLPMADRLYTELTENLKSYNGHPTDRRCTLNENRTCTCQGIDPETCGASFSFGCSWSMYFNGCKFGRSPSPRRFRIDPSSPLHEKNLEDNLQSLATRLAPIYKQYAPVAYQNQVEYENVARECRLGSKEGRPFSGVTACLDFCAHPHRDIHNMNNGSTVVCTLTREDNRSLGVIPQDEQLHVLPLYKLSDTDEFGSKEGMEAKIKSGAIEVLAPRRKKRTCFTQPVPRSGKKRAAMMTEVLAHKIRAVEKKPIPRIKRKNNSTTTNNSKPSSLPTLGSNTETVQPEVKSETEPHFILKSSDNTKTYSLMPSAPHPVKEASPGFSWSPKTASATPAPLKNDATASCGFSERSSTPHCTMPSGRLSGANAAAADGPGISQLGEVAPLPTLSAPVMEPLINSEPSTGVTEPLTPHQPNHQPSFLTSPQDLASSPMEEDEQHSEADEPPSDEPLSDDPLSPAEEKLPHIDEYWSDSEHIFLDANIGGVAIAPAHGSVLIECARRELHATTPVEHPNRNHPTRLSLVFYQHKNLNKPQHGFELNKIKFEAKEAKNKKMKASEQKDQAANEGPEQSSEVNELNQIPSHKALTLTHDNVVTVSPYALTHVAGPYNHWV
Experiment: SPR competition against auranofin
Assay type: binding
Details: competes with auranofin, 2-OG analogue

O=C(O)CNC(=O)C(=O)O [NOG]
SPR competition against auranofin: both NOG and Fe (II) compete with auranofin for binding to TET1-CD
